Assays:
SJ-G2 (brain) cells = tested on: SJ-G2 (brain) cells; set-up: method as in Gilbert et al., 2020; settings: SJ-G2, Brain (GBM); MTT, 72 h; ref Gilbert et al., 2020; cited from earlier work
BE2-C (neuronal) cells = tested on: BE2-C (neuronal) cells; set-up: method as in Gilbert et al., 2020; settings: Neuron, MTT, 72 h, ref Gilbert et al., 2020; cited from earlier work
[1] = tested on: BT474 breast cancer cells; set-up: method as in Gilbert et al., 2020; settings: BT474, Breast (ER/PR/HER2); MTT, 72 h; ref Gilbert et al., 2020; cited from earlier work
T47D breast cancer cells = tested on: T47D breast cancer cells; set-up: method as in Gilbert et al., 2020; settings: Breast (ER/PR), MTT, 72 h, ref Gilbert et al., 2020; cited from earlier work
U87 (brain) cells = tested on: U87 (brain) cells; set-up: method as in Gilbert et al., 2020; settings: U87, Brain (GBM); MTT, 72 h; ref Gilbert et al., 2020; cited from earlier work
H460 (lung, ER+) cells = tested on: H460 (lung, ER+) cells; set-up: method as in Gilbert et al., 2020; settings: MTT, 72 h, ref Gilbert et al., 2020; cited from earlier work
Du145 (prostate) cells = tested on: Du145 (prostate) cells; set-up: method as in Gilbert et al., 2020; settings: MTT, 72 h, ref Gilbert et al., 2020; cited from earlier work
MIA (pancreas) cells = tested on: MIA (pancreas) cells; set-up: method as in Gilbert et al., 2020; settings: MTT, 72 h, ref Gilbert et al., 2020; cited from earlier work
[2] = tested on: ZR-75-1 breast cancer cells; set-up: method as in Gilbert et al., 2020; settings: ZR-75-1, Breast (ER/PR); MTT, 72 h; ref Gilbert et al., 2020; cited from earlier work
[3] = tested on: A431 (vulva/skin, ER+) cells; set-up: method as in Gilbert et al., 2020; settings: MTT, 72 h, ref Gilbert et al., 2020; cited from earlier work
CYP1B1 mRNA = test: Gene expression analysis (qPCR) in MDA-MB-468 cells; type: cell-based, human; settings: 1.0 μM, 6 h
Description: (§1) These analogues were specifically chosen because they were synthesised without the production of regioisomers, their structural differences are small while their biological differences are large, c.f. […] Neither analogue altered the expression of SULT1A1 (Figure 4D).
(§2) Gene expression was examined in MDA-MB-468 cells following 6 h treatment. Total RNA was extracted using the RNeasy Mini Kit (Qiagen) according to the manufacturer’s instructions. One µg of RNA was reverse transcribed using the QuanitTect Reverse Transcription Kit (Qiagen) according to the manufacturer’s instructions. Rotor-Gene SYBR Green PCR Kit (Qiagen) was used to perform qPCR on a Rotor-Gene 3,000 Thermo-Cycler Instrument using β2-microglobulin as a housekeeping gene (Qiagen). The primer sequences were purchased from Qiagen as follows: AhR (QT02422938), CYP1A1 (QT00012341), CYP1B1 (QT00209496), SULT1A1 (QT01665489), and β2M (QT00088935). HotStar Taq activation (95 °C for 5 min) was followed by 40 cycles of denaturation (95 °C for 5 s), and annealing/extension (60 °C for 10 s). The comparative Ct value method was used for data analysis. Results are presented as the mean ± standard error of the mean (SEM) of analysis conducted in duplicate and repeated on two separate occasions. Significant test results were determined using T-test analysis at p < 0.01 with a two tail distribution.

AhR mRNA = test: as above; type: cell-based, human; settings: 1 μM and the GI50 value, 6 h
Description: as §1, §2

CYP1A1 mRNA = test: as above; type: cell-based, human; settings: 6 h
Description: as §1, §2

[4] = tested on: MCF10A normal breast cells; test: MTT growth inhibition with CYP1 (αNF) or SULT1A1 (quercetin) inhibitor; type: cell-based, human; settings: 3 and 5 at 0.1 µM, αNF 10 µM, quercetin 5 µM, 72 h (Supp Figure 1)
Description: (§3) This analysis confirms that both CYP1 and SULT1A1, activity is needed to induce the growth inhibitory effect of the BBQ analogue.
(§4) Cells in logarithmic growth were transferred to 96-well plates. Cytotoxicity was determined by plating cells in duplicate in 100 μL medium at a density of 2,500–4,000 cells/well in 96 well plates. On day 0, (24 h after plating) when the cells were in logarithmic growth 100 μL medium with or without the test agent was added to each well. After 72 h drug exposure growth inhibitory effects were evaluated using the MTT (3-[4,5-dimethylthiazol-2-yl]-2,5-diphenyltetrazolium bromide) assay with absorbance read at 540 nm. An eight-point dose response curve was produced, using MS Excel software. From these dose-response curves, the GI50 value was calculated, representing the drug concentration at which cell growth is 50% inhibited based on the difference between the optical density values on day 0 and those at the end of drug exposure ([Bradshaw et al., 2008]; [Zhang et al., 2009]). Each data point was conducted in duplicate and the mean ± S.E.M. calculated from four to five replicates (n = 4 or 5), which were performed on separate occasions and separate cell line passages. Where shown, significant test results were determined using T-test analysis at p < 0.01 and p < 0.05 with a two tail distribution.
(§5) Supp Figure 1. CYP1 and SULT1A1 inhibition ameliorates the effect of 3 and 5. Growth inhibition (72 h, MTT assay) of 3 and 5 (0.1 µM) in the presence of the CYP1 family inhibitor, α-naphthoflavone (αNF, 10 µM) and SULT1A1 inhibitor, quercetin (qu, 5 µM) in (A) MDA-MB-468 breast cancer cells and (B) MCF10A normal breast cells. Significant differences are at the P < 0.01 ** level, using a paired T-test with a two-tailed distribution.

[5] = tested on: MDA-MB-468 breast cancer cells; test: MTT growth inhibition with co-administered CYP1 (αNF) or SULT1A1 (quercetin) inhibitor; type: cell-based, human; settings: for fold reduction of growth inhibition (GI50 shift): MDA-MB-468
Description: as §3
FIGURE 5 CYP1 and SULT1A1 inhibition ameliorates the effect of 5. Growth inhibition (72 h, MTT assay) of 5 in the presence of the (A) CYP1 family inhibitor, α-naphthoflavone (αNF, 10 μM) and (B) SULT1A1 inhibitor, quercetin (5 μM), in MDA-MB-468 breast cancer cells. […] The effect of αNF and quercetin at the single concentration of 10µM and 5 µM respectively is shown in red as a single value.
as §4
as §5, with “Significant differences are at the P < 0.01 ** level, using a paired T-test with a two-tailed distribution.” left out

SMILES: Nc1ccccc1N1C(=O)c2cccc3cccc(c23)C1=O [Compound 2, 2-(2-aminophenyl)-1H-benzo[de]isoquinoline-1,3(2H)-dione]
- GI50 (SJ-G2 (brain) cells): > 50 µM
- GI50 (BE2-C (neuronal) cells): > 50 µM
- GI50 [1]: 0.43 ± 0.07 µM
- GI50 (T47D breast cancer cells): 0.18 ± 0.02 µM
- GI50 (U87 (brain) cells): > 50 µM
- GI50 (H460 (lung, ER+) cells): 15 ± 7.5 µM
- GI50 (Du145 (prostate) cells): > 50 µM
- GI50 (MIA (pancreas) cells): > 50 µM
- GI50 [2]: 0.12 ± 0.03 µM
- GI50 [3]: 0.25 ± 0.12 µM

SMILES: O=c1c2cccc3cccc(c32)c2nc3ccc(Cl)cc3n12 [Compound 3, 10-Chloro-7H-benzo[de]benzo[4,5]imidazo[2,1-a]isoquinolin-7-one]
- CYP1B1 Fold change (mRNA vs DMSO control) (CYP1B1 mRNA): 3.7 fold
- effect on expression of AhR (AhR mRNA): not significantly altered
- CYP1A1 Fold change (mRNA vs DMSO control) (CYP1A1 mRNA; 0.2 μM): 18 fold
- CYP1A1 Fold change (mRNA vs DMSO control) (CYP1A1 mRNA; 1.0 μM): 20 fold
- effect on growth in normal MCF10A cells [4]: Neither 3, 5, αNF, or quercetin affected growth

SMILES: O=c1c2cccc3cccc(c4n1Cc1ccccc1N=4)c32 [Compound 13, 7H,9H-benzo[4,5]isoquinolino[1,2-b]quinazolin-7-one]
- melting point: 256 to 258 °C

SMILES: O=c1c2cccc3cccc(c32)c2nc3ccccc3n12 [Compound 5, 7H-Benzo[de]benzo[4,5]imidazo[2,1-a]isoquinolin-7-one]
- GI50 ([5]; Homo sapiens, compound alone (no inhibitor), MDA-MB-468, MTT, 72 h): 0.005 µM
- fold reduction of growth inhibition (GI50 shift) ([5]; with quercetin 5 μM vs alone): 4.6 fold
- fold reduction of growth inhibition (GI50 shift) ([5]; with α-naphthoflavone 10 μM vs alone): 36 fold
- CYP1B1 Fold change (mRNA vs DMSO control) (CYP1B1 mRNA): 4.6 fold
- effect on expression of AhR (AhR mRNA): not significantly altered
- CYP1A1 Fold change (mRNA vs DMSO control) (CYP1A1 mRNA; 0.02 μM): 12 fold
- CYP1A1 Fold change (mRNA vs DMSO control) (CYP1A1 mRNA; 1.0 μM): 15 fold
- effect on growth in normal MCF10A cells [4]: Neither 3, 5, αNF, or quercetin affected growth
